Results: patent publication US20240277684A1, “BLOCKADE OF CHEMOKINE (C-C MOTIF) RECEPTOR 2 DURING FLUID RESUSCITATION” (University of South Florida, priority 2022, published 2024)
pIC50: −log10 of the molar value.

Columns and labels:
[1] = system: hemorrhagic shock; assay: Example 1 second series: 30 min hemorrhagic shock, fluid resuscitation until t=300 min; type: in vivo, rat
Experimental: In vivo animal experiments. All procedures were performed in accordance with the National Institutes of Health Guidelines for Use of Laboratory Animals and were approved by the University of South Florida Institutional Animal Care and Use Committeee (IS00008139). Male Sprague-Dawley rats (300-400 g, Envigo, Indianapolis, IN, USA). were anesthetized with 1.7% isoflurane via nose-cone inhalation with the SomnoSuite anesthesia system (Kent Scientific, Torrington, CT, USA). […] The left femoral artery was isolated and cannulated with a 24-gauge peripheral intravenous catheter to allow for blood withdrawal, hemodynamic monitoring, drug administration, and fluid resuscitation. Hemodynamics were continuously monitored with the SurgivetV6400 blood pressure monitor (Med-Electronics, Beltsville, MD, USA), and blood pressures and heart rate were recorded at 1-10 min intervals. All animals were observed over a 10 min period to ensure hemodynamic stability before start of the experiments. All experiments were performed randomized in alternating order.
To test the effects of INCB3284 and Maraviroc after HS, a Wiggers fixed pressure hemorrhage and fluid resuscitation model was used as described (Babu F S, et al., Chemokine (C-X-C motif) receptor 4 regulates lung endothelial barrier permeability during resuscitation from hemorrhagic shock. Physiol Res 2019; 68(4):675-679; Nassoiy S P, et al., Effects of the Kv7 voltage-activated potassium channel inhibitor linopirdine in rat models of haemorrhagic shock. Clin Exp Pharmacol Physiol 2018; Nassoiy S P, et al., Kv7 voltage-activated potassium channel inhibitors reduce fluid resuscitation requirements after hemorrhagic shock in rats. J Biomed Sci 2017; 24(1):8; Bach H Ht, et al., Proteasome inhibition prolongs survival during lethal hemorrhagic shock in rats. J Trauma Acute Care Surg 2013; 74(2):499-507; Bach H Ht, et al., Chemokine (C-X-C motif) receptor 4 and atypical chemokine receptor 3 regulate vascular alpha(1)-adrenergic receptor function. Mol Med 2014; 20:435-447), with slight modifications. In brief, rats were hemorrhaged to a mean arterial blood pressure (MAP) of less than or equal to 30 mmHg for a period of 30 minutes. At the end of the HS period (t=30 min), animals were injected with either vehicle (1 mL LR) or drug in 1 mL LR, followed by fluid resuscitation with 1 mL bolus injections of LR to maintain a systolic blood pressure (SBP) of 90 mmHg or a MAP of 60 mmHg. To avoid fluid overload, bolus injections of LR were limited to 1 mL/min. In the first series of experiments, animals received 1 mL of LR (n=9), 1.1 μmol/kg (n=4) or 5.5 μmol/kg (n=5) INCB3284 in 1 mL LR or […] Maraviroc (n=3) in 1 mL LR at t=30 min. Animals were then resuscitated until t=90 min. At t=0, 15, 30, 60 and 90 min, blood samples were obtained, and plasma prepared. Samples were stored at −70° C. until further processing. At t=90 min, animals were euthanized (isoflurane inhalation, bilateral pneumothorax).
In the second series of experiments, animals received 1 mL of LR (n=10) or 5 μmol/kg INCB3284 in 1 mL LR (n=8) at t=30 min. Animals were resuscitated until t=300 min. Blood samples were obtained for arterial blood gas analyses and measurements of routine laboratory parameters at time points t=0, 30, 90, 150, 210, 270 and 300 min. Death was defined as asystole or loss of a pulse pressure. At the end of the experiments, surviving animals were euthanized as described before. In animals that survived until t=300 min, a gross necropsy was performed after euthanasia, and tissue from lung, small intestine, and colon was collected for measurements of wet-weight/dry-weight ratios.
Arterial blood gases and routine laboratory parameters. Arterial blood gases, electrolytes, creatinine, lactate, hematocrit and hemoglobin were analyzed using the Element point of care veterinary blood gas, electrolyte and critical care analyzer (Cuattro Veterinary USA, Loveland, CO, USA).
Wet-weight/dry-weight ratios.

[2] = target: CCR2 (Homo sapiens, UniProt P41597); settings: read-out: IC50, inhibiting monocyte chemoattractant protein-1 binding to hCCR2; cited from earlier work
[3] = system: hemorrhagic shock; assay: Example 1 first series: 30 min hemorrhagic shock, fluid resuscitation until t=90 min; type: in vivo, rat
Experimental: In vivo animal experiments. All procedures were performed in accordance with the National Institutes of Health Guidelines for Use of Laboratory Animals and were approved by the University of South Florida Institutional Animal Care and Use Committeee (IS00008139). Male Sprague-Dawley rats (300-400 g, Envigo, Indianapolis, IN, USA). were anesthetized with 1.7% isoflurane via nose-cone inhalation with the SomnoSuite anesthesia system (Kent Scientific, Torrington, CT, USA). […] The left femoral artery was isolated and cannulated with a 24-gauge peripheral intravenous catheter to allow for blood withdrawal, hemodynamic monitoring, drug administration, and fluid resuscitation. Hemodynamics were continuously monitored with the SurgivetV6400 blood pressure monitor (Med-Electronics, Beltsville, MD, USA), and blood pressures and heart rate were recorded at 1-10 min intervals. All animals were observed over a 10 min period to ensure hemodynamic stability before start of the experiments. All experiments were performed randomized in alternating order. […] Physiol Res 2019; 68(4):675-679; Nassoiy S P, et al., Effects of the Kv7 voltage-activated potassium channel inhibitor linopirdine in rat models of haemorrhagic shock. Clin Exp Pharmacol Physiol 2018; Nassoiy S P, et al., Kv7 voltage-activated potassium channel inhibitors reduce fluid resuscitation requirements after hemorrhagic shock in rats. J Biomed Sci 2017; 24(1):8; Bach H Ht, et al., Proteasome inhibition prolongs survival during lethal hemorrhagic shock in rats. J Trauma Acute Care Surg 2013; 74(2):499-507; Bach H Ht, et al., Chemokine (C-X-C motif) receptor 4 and atypical chemokine receptor 3 regulate vascular alpha(1)-adrenergic receptor function. Mol Med 2014; 20:435-447), with slight modifications. In brief, rats were hemorrhaged to a mean arterial blood pressure (MAP) of less than or equal to 30 mmHg for a period of 30 minutes. At the end of the HS period (t=30 min), animals were injected with either vehicle (1 mL LR) or drug in 1 mL LR, followed by fluid resuscitation with 1 mL bolus injections of LR to maintain a systolic blood pressure (SBP) of 90 mmHg or a MAP of 60 mmHg. To avoid fluid overload, bolus injections of LR were limited to 1 mL/min. […] Animals were then resuscitated until t=90 min. At t=0, 15, 30, 60 and 90 min, blood samples were obtained, and plasma prepared. Samples were stored at -70° C. until further processing. At t=90 min, animals were euthanized (isoflurane inhalation, bilateral pneumothorax).

[4] = 5 μmol/kg, animals that survived until t=300 min
[5] = 5 μmol/kg, animals that survived until t=300 min, vs vehicle

CCR2, sequence (P41597 whole entry): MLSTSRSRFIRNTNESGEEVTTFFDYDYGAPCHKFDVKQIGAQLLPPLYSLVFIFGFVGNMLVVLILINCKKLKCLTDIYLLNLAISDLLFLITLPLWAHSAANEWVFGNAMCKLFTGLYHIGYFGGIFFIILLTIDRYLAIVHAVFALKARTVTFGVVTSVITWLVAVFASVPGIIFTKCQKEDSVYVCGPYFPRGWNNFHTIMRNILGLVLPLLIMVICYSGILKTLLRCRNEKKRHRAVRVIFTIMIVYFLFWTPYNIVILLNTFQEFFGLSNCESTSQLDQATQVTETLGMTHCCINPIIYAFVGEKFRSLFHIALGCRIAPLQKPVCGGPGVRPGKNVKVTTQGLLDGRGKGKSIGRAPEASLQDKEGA

## COc1ccc([C@]2(O)CC[C@@H](N3CC[C@@H](NC(=O)CNC(=O)c4cccc(C(F)(F)F)c4)C3)CC2)cn1 [INCB3284]
[1]; [4]
  colon wet weight/dry weight ratios, difference to vehicle: did not reach statistical significance
  small bowel wet weight/dry weight ratios, difference to vehicle: did not reach statistical significance
[1]; [5]
  lung wet weight/dry weight ratios: significantly reduced
  wet weight/dry weight ratios of all tissues combined: significantly reduced
[1]; 5 μmol/kg, n=8, p<0.01 vs. vehicle
  animals demonstrating the beginning of hemodynamic decompensation: None
[1]; 5 μmol/kg, until t=300 min, p<0.05
  mortality: 0%
[1]; 5 μmol/kg, p<0.05 vs. vehicle
  median survival time: > 300 min
[1]; single dose 5 μmol/kg at t=30 min, until t=300 min, vs vehicle
  reduction of average fluid requirements: 62±6%
[1]; single dose 5 μmol/kg at t=30 min, until t=300 min, p<0.05
  average fluid requirements: 61.9 ± 10 mL/kg
[2]
  pIC50: 8.43
[3]; 1.1 μmol/kg at t=30 min, until t=90 min, p>0.05 vs. vehicle
  fluid requirements to maintain hemodynamics: 50 ± 1 mL/kg
[3]; 1.1 μmol/kg at t=30 min, vs vehicle
  effect on fluid requirements to maintain hemodynamics: did not affect fluid requirements
[3]; 5.5 μmol/kg at t=30 min
  MAP during the observation period: increased MAP at various time points
[3]; 5.5 μmol/kg at t=30 min, until t=90 min, vs vehicle
  reduction of fluid requirements: 58±11%
[3]; 5.5 μmol/kg at t=30 min, until t=90 min, p<0.05 vs. vehicle
  fluid requirements to maintain hemodynamics: 21.7 ± 6 mL/kg
